The values below are quoted from earlier work in patent US9020605B2, “Electroporation device” (OncoSec Medical Incorporated, priority 2012, dated 2015).

The conditions of this data set: P being the partition coefficient between octanol and water.

Take bleomycin: the “log P” value is “very negative”.
